According to PubChem BioAssay (NCI):
Values joined by “and” are separate entries in the source; they are usually repeats but may differ in a detail not shown here. Equal entries are not always repeated.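 Grown in 96-well plates, cells were treated for 48 hours with each compound at five concentrations. Insufficient inhibition: endpoint recorded as highest concentration tested. GI50 = concentration required for 50% inhibition of growth. TGI: concentration producing complete growth inhibition.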

Legend:
Assay in all cases: inhibition of tumour cell growth, NCI panel, 48 h
SN12C renal = test system: SN12C renal
PC-3 prostate = test system: PC-3 prostate
HCT-15 colon = test system: HCT-15 colon
MDA-MB-435 = test system: MDA-MB-435
HCT-116 colon = test system: HCT-116 colon
LOX IMVI melanoma = test system: LOX IMVI melanoma
OVCAR-3 ovarian = test system: OVCAR-3 ovarian

Structure (SMILES)	TGI (SN12C renal)	TGI (PC-3 prostate)	TGI (HCT-15 colon)	TGI (MDA-MB-435)	TGI (HCT-116 colon)	TGI (LOX IMVI melanoma)	TGI (OVCAR-3 ovarian)	GI50 (SN12C renal)	GI50 (PC-3 prostate)	GI50 (HCT-15 colon)	GI50 (MDA-MB-435)	GI50 (HCT-116 colon)	GI50 (LOX IMVI melanoma)	GI50 (OVCAR-3 ovarian)
OCC(CCc1c[nH]c2ccccc12)c1c[nH]c2ccccc12 (stereo not drawn)	32.6 µM	32.3 µM	32.2 µM	34.3 µM	29.2 µM	27.3 µM	> 100 µM							
COc1cc2c3c(n(CCCBr)c(=O)c2cc1OC)-c1ccc(F)cc1C3=O	> 100 µM	> 100 µM	> 100 µM	> 100 µM	30.6 µM	30.1 µM	99.6 µM	15.6 µM	45.8 µM	48.7 µM	43.9 µM	5.72 µM	5.48 µM	24.6 µM
Cc1cnccc1N=Nc1ccc(N(C)C)cc1	72.6 µM	97.3 µM	> 100 µM	41.2 µM	> 100 µM	53.9 µM	72.1 µM							
COC(=O)[C@H](C)NC(=O)[C@@H](OC)[C@@H]1Cc2cc3cc(OC4CC(OC5CC(O)C(O)C(C)O5)C(O)C(C)O4)c(C)c(O)c3c(O)c2C(=O)[C@H]1OC1CC(OC2CC(OC3CC(C)(O)C(O)C(C)O3)C(O)C(C)O2)C(O)C(C)O1 (stereo partly drawn)	> 50 µM	> 50 µM	> 50 µM	0.905 µM	> 50 µM	> 50 µM	7.41 µM	0.101 µM	0.184 µM	0.41 µM	0.0755 µM	0.0245 µM	0.0308 µM	0.118 µM
CC(C)C[C@H](NC(=O)[C@H](Cc1cccc2ccccc12)NS(=O)(=O)c1cccc2cccnc12)B(O)O	0.23 µM and 0.109 µM	0.817 µM and 0.418 µM	0.403 µM	0.000574 µM	0.0203 µM and < 0.0351 µM	0.0226 µM and < 0.0199 µM	0.0149 µM and 0.0309 µM	0.0071 µM	0.0534 µM	0.13 µM	0.000241 µM	0.00101 µM	0.00137 µM	0.000595 µM
COc1cc(C2CC(=O)Nc3c2ccc2ccccc32)cc(Br)c1OC (stereo not drawn)	> 43.6 µM	> 100 µM	> 90.5 µM	0.464 µM	> 34.7 µM	> 33.5 µM	0.809 µM	1.36 µM	0.49 µM	0.445 µM	0.138 µM	0.373 µM	0.452 µM	0.309 µM
CCOC(=O)C(C(=O)OCC)C(=O)c1ccccc1C(=O)c1ccccc1	> 100 µM		> 100 µM	> 100 µM	> 100 µM	> 100 µM	> 100 µM							
C=C1C(OC/C=C/COC2O[C@@H]3O[C@@]4(C)CC[C@H]5[C@H](C)CC[C@@H](C2=C)[C@@]35OO4)O[C@@H]2O[C@@]3(C)CC[C@H]4[C@H](C)CC[C@@H]1[C@@]24OO3 (stereo partly drawn)	46.5 µM	32.5 µM	16 µM	21.5 µM	16.6 µM	2.09 µM	11.4 µM	1.33 µM	< 0.0141 µM	< 0.0194 µM	0.301 µM	0.0907 µM	0.14 µM	
O=c1oc2c3ccc4cnccc4c3[nH]c2c2ccccc12	85.5 µM	> 100 µM	> 100 µM	34.2 µM	2.99 µM	28.2 µM	32.4 µM	19.3 µM	55.8 µM	30.7 µM	18.1 µM	1.58 µM	12.1 µM	18.3 µM
